Reference: article PMC7747014 (Journal of medicinal chemistry, 2015)
Entries after “also recorded” stand apart in the source; their conditions may differ. Read-outs that look alike come from different tables or passages of the source.

Experiments:
Human recombinant Top1 [1] = target: T1, Human recombinant Top1 (Homo sapiens, UniProt P11387); conditions: graded relative to 1 μM camptothecin; cited from earlier work
T1 sequence (P11387 1-765): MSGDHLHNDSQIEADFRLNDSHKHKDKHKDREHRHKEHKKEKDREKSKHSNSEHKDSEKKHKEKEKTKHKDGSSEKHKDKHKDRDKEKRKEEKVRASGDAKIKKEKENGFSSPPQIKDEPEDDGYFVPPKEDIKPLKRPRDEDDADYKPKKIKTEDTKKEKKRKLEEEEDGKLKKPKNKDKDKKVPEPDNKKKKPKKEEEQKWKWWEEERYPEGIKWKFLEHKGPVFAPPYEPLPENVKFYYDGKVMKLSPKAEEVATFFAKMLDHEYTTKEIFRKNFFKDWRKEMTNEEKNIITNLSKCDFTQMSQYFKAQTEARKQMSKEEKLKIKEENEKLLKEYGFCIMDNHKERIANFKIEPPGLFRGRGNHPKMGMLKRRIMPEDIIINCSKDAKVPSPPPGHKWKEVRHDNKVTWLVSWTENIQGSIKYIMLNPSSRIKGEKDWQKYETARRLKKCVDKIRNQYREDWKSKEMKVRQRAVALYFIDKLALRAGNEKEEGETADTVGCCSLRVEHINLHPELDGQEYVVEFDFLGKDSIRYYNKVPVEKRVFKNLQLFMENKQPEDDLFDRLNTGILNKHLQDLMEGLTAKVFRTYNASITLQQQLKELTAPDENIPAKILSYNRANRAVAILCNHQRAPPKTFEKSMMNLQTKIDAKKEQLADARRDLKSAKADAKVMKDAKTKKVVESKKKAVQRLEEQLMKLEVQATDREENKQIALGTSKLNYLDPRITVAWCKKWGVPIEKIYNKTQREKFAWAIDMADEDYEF

prostate DU-145 = conditions: read-out: cytotoxicity (GI50 in μM) prostate DU-145; cited from earlier work
melanoma UACC-62 = conditions: read-out: cytotoxicity (GI50 in μM) melanoma UACC-62; cited from earlier work
CNS SF-539 = conditions: read-out: cytotoxicity (GI50 in μM) CNS SF-539; cited from earlier work
Human recombinant Top1 [2] = target: T1, Human recombinant Top1; assay: Top1-mediated DNA cleavage assay; format: biochemical; conditions: for trapping of Top1 cleavage complexes at low concentration: 5 nM, dose-dependent gel (Figure 8)
lung HOP-62 = conditions: read-out: cytotoxicity (GI50 in μM) lung HOP-62; cited from earlier work
breast MCF7 = conditions: read-out: cytotoxicity (GI50 in μM) breast MCF7; cited from earlier work
[3] = target: T2, drug−Top1−DNA cleavage complexes (Homo sapiens, UniProt P11387); assay: Kinetics of reversal assay of Top1-mediated DNA cleavage complexes; format: biochemical; conditions: for reversal of ternary cleavage complexes: common cleavage sites 70, 92, 97 and 119, forward reaction terminated with 0.35 M NaCl
T2 sequence (P11387 1-765): T1 sequence (P11387 1-765)

ovarian OVACAR-3 = conditions: read-out: cytotoxicity (GI50 in μM) ovarian OVACAR-3; cited from earlier work
[4] = system: 60 common human cancer cell lines (NCI-60); conditions: read-out: MGM; average GI50 across 60 cell lines; cited from earlier work
colon HCT-116 = conditions: read-out: cytotoxicity (GI50 in μM) colon HCT-116; cited from earlier work
recombinant TDP1 [5] = target: T3, recombinant TDP1 (Homo sapiens, UniProt Q9NUW8); conditions: read-out: TDP1 inhibition; semiquantitative IC50 scale; cited from earlier work
renal SN12C = conditions: read-out: cytotoxicity (GI50 in μM) renal SN12C; cited from earlier work
recombinant TDP1 [6] = target: T3, recombinant TDP1; assay: Gel-based assay measuring the inhibition of recombinant TDP1; format: biochemical; conditions: read-out: TDP1 inhibition; semiquantitative IC50 scale

T3 sequence (Q9NUW8 whole entry): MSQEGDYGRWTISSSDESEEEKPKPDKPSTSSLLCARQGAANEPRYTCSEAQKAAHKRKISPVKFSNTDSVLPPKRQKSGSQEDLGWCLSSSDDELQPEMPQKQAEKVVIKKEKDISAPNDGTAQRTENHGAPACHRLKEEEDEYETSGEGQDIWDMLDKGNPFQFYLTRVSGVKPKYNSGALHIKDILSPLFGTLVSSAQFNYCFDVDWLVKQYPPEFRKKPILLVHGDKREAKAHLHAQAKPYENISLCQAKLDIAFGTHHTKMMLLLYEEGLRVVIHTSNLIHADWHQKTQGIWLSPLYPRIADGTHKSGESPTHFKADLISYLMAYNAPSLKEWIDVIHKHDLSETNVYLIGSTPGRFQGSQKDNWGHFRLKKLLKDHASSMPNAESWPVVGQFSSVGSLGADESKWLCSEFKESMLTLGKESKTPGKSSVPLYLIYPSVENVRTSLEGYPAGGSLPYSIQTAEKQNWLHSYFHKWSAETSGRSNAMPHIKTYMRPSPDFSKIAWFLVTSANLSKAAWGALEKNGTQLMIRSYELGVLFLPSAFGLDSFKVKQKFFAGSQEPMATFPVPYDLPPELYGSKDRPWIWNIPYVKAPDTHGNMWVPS

Row | SMILES | Top1 cleavage (Human recombinant Top1 [1]) | GI50 (prostate DU-145) | GI50 (melanoma UACC-62) | GI50 (CNS SF-539) | trapping of Top1 cleavage complexes at low concentration (Human recombinant Top1 [2]) | GI50 (lung HOP-62) | GI50 (breast MCF7) | reversal of ternary cleavage complexes [3] | GI50 (ovarian OVACAR-3) | GI50 [4] | GI50 (colon HCT-116) | IC50 (recombinant TDP1 [5]) | GI50 (renal SN12C) | Top1 cleavage (Human recombinant Top1 [2]; graded relative to 1 μM camptothecin) | IC50 (recombinant TDP1 [6]) | DNA alkylation / irreversible ternary cleavage complex ([3]; from decrease of cleavage bands over time)
1 | CC[C@@]1(O)C(=O)OCc2c1cc1n(c2=O)Cc2cc3ccccc3nc2-1 [Compound 1, camptothecin] | ++++ | < 0.01 µM | < 0.01 µM | < 0.01 µM | lesser activity at that concentration | < 0.01 µM | < 0.01 µM | reversed much faster | – | – | – | – | – | – | – | –
2 | COc1cc2c(cc1O)-c1c(c3cc(OC)c(OC)cc3c(=O)n1CCCN1CCOCC1)C2=O [Compound 8] | – | 0.2 µM | 0.07 µM | 0.28 µM | – | 0.18 µM | 0.03 µM | – | 8.3 µM | 3100 ± 300 nM | 2.3 µM | 37000 to 111000 nM | 0.19 µM | – | – | –
3 | O=C1c2cc(O)ccc2-c2c1c1ccc([N+](=O)[O-])cc1c(=O)n2CCCBr [Compound 68, 6-(3-Bromopropyl)-9-hydroxy-3-nitro-5H-indeno[1,2-c]-isoquinoline-5,11(6H)-dione] | – | – | – | – | trapped Top1 cleavage complexes at a concentration as low as 5 nM | – | – | quite persistent but did reverse over time; also recorded: reversed slower than that of camptothecin | – | – | – | – | – | +++++ | 37000 to 111000 nM | did not alkylate or form an irreversible ternary cleavage complex; also recorded: no evidence of DNA alkylation
